# Assay results: patent EP0993460B1, “BENZO(5,6)CYCLOHEPTA(1,2B)PYRIDINE DERIVATIVES USEFUL FOR INHIBITION OF FARNESYL PROTEIN TRANSFERASE” (SCHERING CORPORATION, priority 1997, dated 1998)
# Tested on: COS Cell
# Assay: COS Cell IC50 (Cell-Based Assay), procedures of WO 95/10516
# Experimental: FPT IC50 (inhibition of farnesyl protein transferase, in vitro enzyme assay) and COS Cell IC50 (Cell-Based Assay) were determined following the assay procedures described in WO 95/10516, published April 20, 1995. GGPT IC50 (inhibition of geranylgeranyl protein transferase, in vitro enzyme assay), Cell Mat Assay, and anti-tumor activity (in vivo anti-tumor studies) could be determined by the assay procedures described in WO 95/ 10516. The disclosure of WO 95/10516 is incorporated herein by reference thereto.
structure (smiles),measurement,value
"CC1(CC(=O)N2CCC([C@H]3c4ncc(Br)cc4CCc4cc(Cl)cc(Br)c43)CC2)CCN(S(C)(=O)=O)CC1 [Example 1, (+) -4-(3,10-dibromo-8-chloro-6,11-dihydro-5H-benzo[5,6]cyclohepta[1,2-b]pyridin-11(R)-yl)-1-[[4-methyl-1-(methylsulfonyl)-4-pyridinyl]acetyl]piperidine]",IC50,22 nM
